Measured values: patent US8207154B2, “Catatonic bacteriochlorophyll derivatives” (Yeda Research and Development Co., Ltd., priority 2005, dated 2012)

What was measured:
[1] = test system: H5V mouse endothelial cells; assay: Phototoxicity (cytophototoxicity) on endothelial cells, Neutral Red viability; type: cell-based; conditions: endothelial cell cultures, FIG. 3C
Description: (i) Cell culture. H5V mouse endothelial cells were cultured as monolayers in Dulbecco's modified Eagle's medium (DMEM)/F12 containing 25 mM HEPES, pH 7.4, 10% fetal calf serum (FCS), glutamine (2 mM), penicillin (0.06 mg/ml), and streptomycin (0.1 mg/ml) (hereinafter referred to as the “culture medium”). The cells were grown at 37° C. in an 8% CO2-humidified atmosphere.
(a) Cells. To determine the photodynamic efficacy, cells were cultured in 96-well plates (40×10^3/well) and incubated in the dark in culture medium containing increasing concentrations of sensitizers 5, 7, 9 and 11, for a period of 1 min to 8 h. Unbound sensitizer was removed by washing the cells once with fresh culture medium. The plates were illuminated at room temperature, from their bottom side, for 10 min (650<λ<800 nm, 12 J/cm^2). The light source was a 100 W Halogen lamp (Osram, Germany) equipped with a <650 nm cutoff and a 4-cm water filter. The cultures were placed in the culture incubator and cell survival was determined 24 h after illumination, by Neutral Red viability assay. Cell survival was calculated as the percent of the dye accumulated in the untreated controls. Triplicate determinations were conducted and representative experiments are shown. […]
The phototoxicity of compounds 5, 7, 9, and 11 on H5V mouse endothelial cells was determined as described in section (iv) (a) above. […]

[2] = target: human serum albumin (HSA) (Homo sapiens, UniProt P02768); assay: Interaction with human serum albumin (aggregation state, spectrophotometric); type: binding; conditions: in PBS, 3.2×10^−4 M, 0.1-5 mg HSA
Description: A solution of 5 in PBS (3.2×10^−4 M, 100 μl) was mixed with various amounts of human serum albumin (0.1, 0.5, 1, 2, and 5 mg). Aggregation, at high concentrations of 5 in aqueous solutions, is reflected by splitting of the original monomeric peak at 747 nm into two new peaks at 720 and 760 nm. The state of aggregation was followed spectrophotometrically over the range of albumin concentrations at room temperature in a 0.1 mm cuvette. The absorbance intensity values at the peak wavelengths were taken as an indication of the aggregation.
Addition of the albumin caused disaggregation of the sensitizer 5 in PBS (FIG. 2). The absorption spectra of the solutions containing increasing amounts of albumin resembled the spectrum of the monomeric pigment 5 in methanol.

[3] = Pharmacokinetics in rat blood after i.v. injection (fluorescence); type: in vivo, Wistar rats
Description: (ix) Pharmacokinetics. Anesthetized Wistar rats (n=3 per each time-point) were i.v. injected with compound 5 of the invention (0.6 mg/kg). […] Control blood samples were collected from three untreated rats and treated accordingly. The test tubes containing the blood samples were weighed again in order to calculate the exact sample mass. The blood samples were then frozen in liquid nitrogen and lyophilized. The lyophilized samples were extracted with methanol (1 ml each), vortexed and centrifuged. The supernatant was collected and analyzed by fluorescence measurements (Spectrofluorimeter SLM-8000, Aminco USA). The fluorescence emission spectra were recorded in a range of 650-850 nm, with excitation at 520 nm. Fluorescence of methanol and untreated blood extracts were used as blanks. A calibration curve with known concentrations of the sensitizer was prepared.

St. albus = assay: Phototoxicity on Gram-positive bacteria, colony counting; type: cell-based
Description: (§1) (ii) Bacterial cultures. Bacteria of strains St. albus and E. coli XL-1 were cultured in liquid LB medium (E. coli in LB containing 12.5 μg tetracyclin/ml) to a final density of OD600 nm=0.5-0.9 (1 OD=8×10^8 bacteria/ml). The bacteria were spun down (4000×g, 5 min.) and resuspended in PBS.
(§2) (b) Bacterial. To determine the photodynamic efficacy, bacteria were diluted to aliquots of 300 μl containing about 10^7 bacteria, and incubated with increasing concentrations of sensitizer in plastic test tubes in the dark for 1 h at room temperature, and then illuminated at 70 mW/cm^2 for 15 min. Samples of the treated bacteria cultures were subsequently plated at different dilutions (50-200 bacteria/plate) on LB agar and cultured for 24 h at 37° C. for determination of bacterial survival by colony counting. Triplicate determinations were conducted and representative experiments are shown.
(§3) The phototoxicity of positively-charged compound 5 was tested on Gram-positive St. albus and Gram-negative E. coli bacteria in comparison to the negatively-charged Pd 3^1-oxo-15-methoxycarbonylmethyl-Rhodobacteriochlorin 13^1-(2-sulfoethyl)amide dipotassium salt (described in PCT/IL03/00973). Bacteria were incubated with increasing concentrations of the sensitizers for 1 h and illuminated or kept in the dark. […] Gram-positive bacteria St. albus, was 100 times more sensitive to compound 5 than Gram-negative E. coli. No phototoxicity was observed when bacteria were incubated and treated with the same sensitizers' concentration range without illumination (dark controls).

[4] = Biodistribution in rat organs and tissues (fluorescence); type: in vivo, Wistar rats; conditions: 0.6 mg/kg i.v.
Description: (x) Biodistribution. Wistar rats (n=2) were anesthetized and compound 5 of the invention (0.6 mg/kg) was injected into their tail vein. The control group (n=2) was not treated with the sensitizer. At 30 min and 24 h after injection, rats (one for each time-point), were sacrificed and samples of the indicated organs or tissues (heart, liver, lung, spleen, kidney, brain, testes, skin, muscle and fat) were collected into and weighed in pre-weighted vials, immediately frozen on dry ice and stored at […] in the dark until analyzed. For examination, each sample was thawed, weighed again, and homogenized (Polytron, Kinematica GmbH or Ultra-Turrax) in ice-cold water. The vials were then frozen in liquid nitrogen and lyophilized. The lyophilized samples were extracted with methanol (5-10 ml) in an amount equivalent to the tissue weight, and then vortexed and centrifuged. The supernatant was collected and analyzed and fluorescence measured as described in (ix) above. The fluorescence of methanol and of tissue extracts from control animals were used as blanks.

E. coli = assay: Phototoxicity on Gram-negative bacteria, colony counting; type: cell-based, E. coli XL-1
Description: as §1, §2, §3

[5] = 1 h incubation, illuminated 15 min at 70 mW/cm^2, read-out: Kd (phototoxicity)

Chain of human serum albumin (HSA) (P02768 25-609): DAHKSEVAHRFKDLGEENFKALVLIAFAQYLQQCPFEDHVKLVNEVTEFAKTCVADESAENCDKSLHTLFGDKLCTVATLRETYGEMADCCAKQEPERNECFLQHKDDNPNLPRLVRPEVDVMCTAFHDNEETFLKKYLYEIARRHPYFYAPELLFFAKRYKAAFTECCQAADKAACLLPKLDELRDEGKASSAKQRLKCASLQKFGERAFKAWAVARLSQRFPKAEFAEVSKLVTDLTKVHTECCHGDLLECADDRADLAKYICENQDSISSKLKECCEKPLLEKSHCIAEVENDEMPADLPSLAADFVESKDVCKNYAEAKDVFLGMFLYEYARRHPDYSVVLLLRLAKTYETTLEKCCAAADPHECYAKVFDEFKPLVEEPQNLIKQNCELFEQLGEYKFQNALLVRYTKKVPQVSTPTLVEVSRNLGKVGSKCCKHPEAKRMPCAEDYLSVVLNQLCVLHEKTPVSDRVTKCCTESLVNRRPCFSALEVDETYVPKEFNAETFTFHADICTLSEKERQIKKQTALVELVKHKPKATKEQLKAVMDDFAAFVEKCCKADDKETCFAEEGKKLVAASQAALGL

Substance: 3^1-Oxo-15-methoxycarbonylmethyl-Rhodo-bacteriochlorin 13^1,17^3-di(2-N^3-trimethylammoniumethyl)amide dicitrate salt [Compound 5]
- incubation time at which very high PDT efficiency is reached [1]: less than 5 minutes
- aggregation state on addition of albumin [2]: disaggregation
- clearance kinetics ([3]; 24 h after i.v. administration): bicompartmental distribution
- sensitizer cleared ([3]; within 30 min after i.v. injection (0.6 mg/kg)): about 60%
- sensitivity of St. albus relative to E. coli (St. albus): 100 times
- phototoxic killing concentration (St. albus; [5]): 20 nM
- levels of the sensitizer in organs ([4]; 30 min after injection): relatively high in the blood, kidneys and lungs
- level of the sensitizer in the blood ([4]; 24 h after injection): almost background level
- levels of the sensitizer in organs ([4]; 24 h after injection): significant levels were still found in the kidneys, liver and spleen
- death of E. coli (E. coli; 10 μM, illuminated): ~100%
- phototoxic concentration (E. coli; [5]): 1700 nM
